In patent US20250108119A1, “NOVEL STEROID PAYLOADS, STEROID LINKERS, ADCs CONTAINING AND USE THEREOF” (IMMUNEXT, INC., priority 2021, published 2025):

Columns and labels:
[1] = test system: LPS stimulated human PBMCs; test: LPS stimulated human PBMC, IL-1β and IL-6 ELISA; type: cell-based; details: for inhibition of huIL1-β: Experiment 7: free payload, INX-SM-43 100-0.032 nM, INX-SM-44 1000-0.32 nM
Outline: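 Human PBMC (1-2 healthy donors), 150,000 cells/well, treated with test agents at 1,000 nM down to 1 nM or 0.2 nM, in duplicate. LPS at 1 ng/ml added immediately after free payload or 4 h after conjugates; IL-1β and IL-6 in supernatants measured by ELISA.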

human PBMC = test: Cytokine production (IL-1β, IL-6) at 24 hr by human PBMC incubated with 1 ng/mL LPS; type: cell-based; details: free steroid payloads, serial dilutions, 1 ng/mL LPS, 24 hr
Protocol: (§1) FIG. 51: INX-SM-3, INX-SM-4, and INX-SM-1 inhibit IL-1β (left) and IL-6 (right) production. Cytokine levels were measured at 24 hr for human PBMCS incubated with 1 ng/mL LPS and serial dilutions (1000-1 nM) of steroid payloads, with the no treatment control plotted on the log-scale x-axis at <1 nM; n=1 donor, standard deviation plotted from technical duplicates.
as §1, with “52: INX-SM-1,” for “51:”, “INX-SM-4” for “INX-SM-4,”, “INX-SM-6” for “INX-SM-1”, “IL-1β” for “IL-1β (left) and IL-6 (right)”, “levels” for “levels were”, “ng/ml” for “ng/mL”
(§2) FIG. 53: INX-SM-9, INX-SM-31 and INX-SM-35 inhibit IL-1β (top) and IL-6 (bottom) production. Cytokine levels measured at 24 hr for human PBMCS incubated with 1 ng/mL LPS and serial dilutions (1000-0.2 nM) of steroid payloads, with the no treatment control plotted on the log-scale x-axis at <0.2 nM; n=2 donors-representative donor shown. Standard deviation plotted from technical duplicates.
as §2, with “54: INX-SM-32 inhibits” for “53: INX-SM-9, INX-SM-31 and INX-SM-35 inhibit”, “(500-1” for “(1000-0.2”, “<1” for “<0.2”, “n=2. Representative” for “n=2 donors-representative”
Cytokine levels measured at 24 hr for human PBMCS incubated with 1 ng/ml LPS and serial dilutions (1000-0.5 nM) of steroid payloads, with the no treatment control plotted on the log-scale x-axis at <0.5 nM; n=1 donor, standard deviation plotted from technical duplicates.
FIG. 56: INX-SM-2 and INX-SM-7 show inhibition in IL-1β. Average Cytokine levels measured at 24 hr for human PBMCS incubated with 1 ng/ml LPS and serial dilutions (1000-0.16 nM) of steroid payloads, with the no treatment control plotted on the log-scale x-axis at <0.16 nM; n=1, standard deviation plotted from technical duplicates. […]
Average cytokine levels measured at 24 hr for human PBMC incubated with 1 ng/ml LPS and serial dilutions (100-0.032 nM) of glucocorticoid payloads; n=1, mean of technical duplicates.
Average cytokine levels measured at 24 hr for human PBMC incubated with 1 ng/mL LPS and serial dilutions (1000-0.32 nM) of glucocorticoid payloads; n=1, mean of technical duplicates.
Cytokine levels measured at 24 hr for human PBMC incubated with 1 ng/mL LPS and serial dilutions (1000-0.5 nM) of steroid payloads, with the no treatment control plotted on the log-scale x-axis at <0.5 nM; n=1 donor, mean of technical duplicates plotted.
Average cytokine levels for A. hull-1β B. huIL-6 measured at 24 hr for human PBMC incubated with 1 ng/mL LPS and serial dilutions (1000-0.16 nM) of conjugated steroid linker payloads, with the no treatment control plotted on the log-scale x-axis at <0.16 nM; n=1, standard deviation plotted from technical duplicates. Values above the ULOQ (12,500 pg/mL for IL-1b and 150,000 pg/mL for IL-6) were plotted as the extrapolated value.
Average cytokine levels for IL-1β measured at 24 hr for human PBMC incubated with 1 ng/mL LPS and serial dilutions (1000-0.16 nM) of conjugated steroid linker payloads, with the no treatment control plotted on the log-scale x-axis at <0.16 nM; n=1, mean plotted of technical duplicates
Average cytokine levels for IL-1β measured at 24 hr for human PBMC incubated with 1 ng/mL LPS and serial dilutions (1000-0.16 nM) of conjugated steroid linker payloads, with the no treatment control plotted on the log-scale x-axis at <0.16 nM; n=1, mean plotted of technical duplicates.
FIG. 66: Analogs of INX V are potent relative to INX231J. […]

## C[C@]12C=CC(=O)C=C1CC[C@@H]1[C@@H]2[C@@H](O)C[C@@]2(C)[C@H]1C[C@H]1O[C@@H](c3ccc(CC4(N)CC(F)(F)C4)cc3)O[C@]12C(=O)CO [INX-SM-35, (6aR,6bS,7S,8aS,8bS,10R,11aR,12aS,12bS)-10-(4-((1-amino-3,3-difluorocyclobutyl)methyl)phenyl)-7-hydroxy-8b-(2-hydroxyacetyl)-6a,8a-dimethyl 1,2,6a,6b,7,8,8a,8b,11a,12,12a,12b-dodecahydro-4H-naphtho[2′,1′:4,5]indeno[1,2-d][1,3]dioxol-4-one]
[1]; Experiment 3: free payload 1000-0.2 nM, 24 hr, n=2 donors
  inhibition of IL-1β production: dose dependent inhibition in IL-1β production
Human PBMC
  inhibition of IL-1β production: inhibit
  inhibition of IL-6 production: inhibit

## C[C@]12C=CC(=O)C=C1CC[C@@H]1[C@@H]2[C@@H](O)C[C@@]2(C)[C@H]1C[C@H]1CN(c3ccc(CC4CC5(CC(N)C5)C4)cc3)C[C@]12C(=O)CO (stereo partly drawn) [INX-SM-37, (6aR,6bS,7S,8aS,8bS,11aR,12aS,12bS)-10-(4-((6-aminospiro[3.3]heptan-2-yl)methyl)phenyl)-7-hydroxy-8b-(2-hydroxyacetyl)-6a,8a-dimethyl-1,6a,6b,7,8,8a,8b,9,10,11,11a,12,12a,12b-tetradecahydronaphtho[2′,1′:4,5]indeno[1,2-c]pyrrol-4 (2H)-one]
[1]
  potency of free payloads (conclusions): lowest potency among the R stereoisomers of the series
[1]; Experiment 11: free payloads 1000-0.15 nM
  inhibition of IL-1β: weakly inhibits IL-1β
Human PBMC
  inhibition of IL-1β production: weakly inhibits

## C[C@]12C=CC(=O)C=C1CC[C@@H]1[C@@H]2[C@@H](O)C[C@@]2(C)[C@H]1C[C@H]1CN(c3ccc(Cc4cccc(N)c4)cc3)C[C@]12C(=O)CO [INX-SM-40, (6aR,6bS,7S,8aS,8bS,11aR,12aS,12bS)-10-(4-(3-aminobenzyl)phenyl)-7-hydroxy-8b-(2-hydroxyacetyl)-6a,8a-dimethyl-1,6a,6b,7,8,8a,8b,9,10,11,11a,12,12a,12b-tetradecahydronaphtho[2′,1′:4,5]indeno[1,2-c]pyrrol-4 (2H)-one]
[1]; Experiment 12: free payloads 1000-0.15 nM
  inhibition of IL-1β and IL-6: weakly inhibit IL-1β and IL-6
Human PBMC
  inhibition of IL-1β production: weakly inhibit
  inhibition of IL-6 production: weakly inhibit

## C[C@]12C=CC(=O)C=C1CC[C@@H]1[C@@H]2[C@@H](O)C[C@@]2(C)[C@H]1C[C@H]1O[C@@H](c3ccc(OC4CC5(CC(N)C5)C4)cc3)O[C@]12C(=O)CO (stereo partly drawn) [INX-SM-43, (6aR,6bS,7S,8aS,8bS,10R,11aR,12aS,12bS)-10-(4-((6-aminospiro[3.3]heptan-2-yl)oxy)phenyl)-7-hydroxy-8b-(2-hydroxyacetyl)-6a,8a-dimethyl-1,2,6a,6b,7,8,8a,8b,11a,12, 12a,12b-dodecahydro-4H-naphtho[2′,1′:4,5]indeno[1,2-d][1,3]dioxol-4-one]
[1]
  inhibition of huIL1-β: moderate inhibition of huIL1-β
Human PBMC
  inhibition of IL-1β production: moderate inhibition

## C[C@]12C=CC(=O)C=C1CC[C@@H]1[C@@H]2[C@@H](O)C[C@@]2(C)[C@H]1C[C@H]1O[C@@H](c3ccc(OC4CC5(CC(N)C5)C4)cc3F)O[C@]12C(=O)CO (stereo partly drawn) [INX-SM-44, (6aR,6bS,7S,8aS,8bS,10R,11aR,12aS,12bS)-10-(4-((6-aminospiro[3.3]heptan-2-yl)oxy)-2-fluorophenyl)-7-hydroxy-8b-(2-hydroxyacetyl)-6a,8a-dimethyl-1,2,6a,6b,7,8,8a,8b,11a,12,12a,12b-dodecahydro-4H-naphtho[2′,1′:4,5]indeno[1,2-d][1,3]dioxol-4-one]
[1]
  inhibition of huIL1-β: moderate inhibition of huIL1-β
Human PBMC
  inhibition of IL-1β production: moderate inhibition
